{"source": "patent US6537758B2", "about": "“Method for isolating nucleic acid from micronuclei separated from a cell” (The Salk Institute for Biological Studies, priority 1995, dated 2003)", "origin": "cited, not measured here", "key": {"[1]": {"system": "mouse cells with unstably amplified dihydrofolate reductase (DHFR) genes"}, "HL60 cells": {"system": "HL60 cells", "settings": "low concentrations of HU"}}, "data": [{"smiles": "NC(=O)NO", "note": "[hydroxyurea]", "values": [{"measurement": "rate of loss of unstably amplified DHFR genes", "setting": "[1]", "value": "increase the rate of loss"}, {"measurement": "c-myc expression", "setting": "HL60 cells", "value": "decreased c-myc expression"}, {"measurement": "differentiation", "setting": "HL60 cells", "value": "induction of differentiation"}, {"measurement": "number of c-myc-containing DMs", "setting": "HL60 cells", "value": "reduced the number of c-myc-containing DMs"}, {"measurement": "elimination of genes amplified on DMs", "setting": "cells containing DMs; HU at concentrations that do not inhibit DNA synthesis or ribonucleotide reductase", "value": "eliminated"}, {"measurement": "micronuclei formation", "setting": "cells containing DMs; HU-treatment of cells containing DMs", "value": "increase in micronuclei formation"}]}]}
